These results are taken from patent US20260207573A1, “EFFECT OF RIVOCERANIB ON CYTOCHROME P450 ENZYME SUBSTRATES” (ELEVAR THERAPEUTICS, INC., priority 2022, published 2026).

For series [1], the target named is T1, CYP1A2 (Homo sapiens, UniProt P05177).
T1 sequence (P05177 1-516): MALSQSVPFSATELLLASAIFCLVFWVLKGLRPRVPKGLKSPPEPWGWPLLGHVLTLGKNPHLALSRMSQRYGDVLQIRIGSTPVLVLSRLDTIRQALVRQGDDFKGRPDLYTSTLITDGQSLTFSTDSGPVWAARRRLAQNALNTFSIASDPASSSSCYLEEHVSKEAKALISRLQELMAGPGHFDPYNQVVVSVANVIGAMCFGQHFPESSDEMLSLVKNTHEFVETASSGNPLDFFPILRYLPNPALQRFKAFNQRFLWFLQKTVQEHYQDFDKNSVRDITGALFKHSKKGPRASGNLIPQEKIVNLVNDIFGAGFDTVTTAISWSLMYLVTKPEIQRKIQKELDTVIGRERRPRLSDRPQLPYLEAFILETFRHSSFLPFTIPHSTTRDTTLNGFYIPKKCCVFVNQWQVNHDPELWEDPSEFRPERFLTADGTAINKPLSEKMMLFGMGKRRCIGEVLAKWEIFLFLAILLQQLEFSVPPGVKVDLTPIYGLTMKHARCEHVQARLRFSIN
The experiment in a line: clinical. The note with it: for AUC(0-t) / AUC(0-inf) / Cmax: human, in vivo. The procedure: (§1) This example describes a pharmacokinetic interaction study in healthy human volunteers dosed with 700 mg rivoceranib and a mixture of cytochrome P450 enzyme (CYP1A2, CYP2C9, CYP2C19, CYP2D6, and CYP3A) substrates.
(§2) The primary objective of the study was to evaluate the effect of rivoceranib 700 mg once daily (QD) on the pharmacokinetics (PK) of various CYP substrates to determine drug-drug interactions of rivoceranib.
(§3) This was an open-label, 2-treatment, fixed-sequence drug-drug interaction phase 1 study designed to evaluated the impact of multiple oral doses of 700 mg rivoceranib on the single-dose PK of CYP enzyme substrates administered in a 5+1 Cooperstown probe cocktail (caffeine [CYP1A2], S- and R-warfarin [CYP2C9]+vitamin K, omeprazole [CYP2C19], dextromethorphan [CYP2D6], and midazolam [CYP3A]) in healthy volunteers (N=32). On day 1, volunteers received a single dose of the 5+1 cocktail comprising 200 mg caffeine, 10 mg S- and R-warfarin with 10 mg vitamin K, 40 mg omeprazole, 30 mg dextromethorphan, and 2 mg midazolam. Blood samples were collected pre-dose on day 1 and up to 120 hours post-dose for PK analyses of the substrates in the 5+1 cocktail. On days 6 to 15, volunteers received 700 mg rivoceranib once daily for 10 consecutive days with a single dose of the 5+1 cocktail administered on day 11. Blood samples were collected pre-dose on day 11 and up to 120 hours post cocktail dosing (day 16) for PK analyses. Each dosing was under fasted conditions. There was a washout period of 5 days between day 1 dosing and the first rivoceranib dose on day 6; the 2 cocktail dosings were spaced by 10 days.

Series [2] has as its target T1, CYP1A2. The note with it: in vivo, po.
The target of series [3] is T2, CYP2C9 (Homo sapiens, UniProt P11712). The experiment in a line: Example 2 phase 1 drug-drug interaction study, rivoceranib 700 mg QD + 5+1 cocktail: S- and R-warfarin probe. Also noted: AUC(0-∞), Mean (CV %), 5 + 1 cocktail alone / AUC(0-∞), Geometric LSM, 5 + 1 cocktail alone / AUC(0-∞), Mean (CV %), Rivoceranib plus 5 + 1 cocktail / AUC(0-∞), Geometric LSM, Rivoceranib plus 5 + 1 cocktail / AUC(0-t), Mean (CV %), 5 + 1 cocktail alone / AUC(0-t), Geometric LSM, 5 + 1 cocktail alone / AUC(0-t), Mean (CV %), Rivoceranib plus 5 + 1 cocktail / AUC(0-t), Geometric LSM, Rivoceranib plus 5 + 1 cocktail: unit not given beside the values. The settings on record: for AUC(0-t), Geometric LSM, Rivoceranib plus 5 + 1 cocktail / AUC(0-t), Mean (CV %), Rivoceranib plus 5 + 1 cocktail / AUC(0-∞), Geometric LSM, Rivoceranib plus 5 + 1 cocktail / AUC(0-∞), Mean (CV %), Rivoceranib plus 5 + 1 cocktail / Cmax, Geometric LSM, Rivoceranib plus 5 + 1 cocktail / Cmax, Mean (CV %), Rivoceranib plus 5 + 1 cocktail / AUC(0-t), Geometric LSM, 5 + 1 cocktail alone / AUC(0-t), Mean (CV %), 5 + 1 cocktail alone / AUC(0-∞), Geometric LSM, 5 + 1 cocktail alone / AUC(0-∞), Mean (CV %), 5 + 1 cocktail alone / Cmax, Geometric LSM, 5 + 1 cocktail alone / Cmax, Mean (CV %), 5 + 1 cocktail alone: healthy volunteers; for AUC(0-t), Geometric LSM, Rivoceranib plus 5 + 1 cocktail / AUC(0-t), Mean (CV %), Rivoceranib plus 5 + 1 cocktail / AUC(0-∞), Geometric LSM, Rivoceranib plus 5 + 1 cocktail / AUC(0-∞), Mean (CV %), Rivoceranib plus 5 + 1 cocktail / Cmax, Geometric LSM, Rivoceranib plus 5 + 1 cocktail / Cmax, Mean (CV %), Rivoceranib plus 5 + 1 cocktail: 5+1 cocktail day 11 + rivoceranib 700 mg QD days 6-15; for AUC(0-t), Geometric LSM, 5 + 1 cocktail alone / AUC(0-t), Mean (CV %), 5 + 1 cocktail alone / AUC(0-∞), Geometric LSM, 5 + 1 cocktail alone / AUC(0-∞), Mean (CV %), 5 + 1 cocktail alone / Cmax, Geometric LSM, 5 + 1 cocktail alone / Cmax, Mean (CV %), 5 + 1 cocktail alone: single oral 5+1 cocktail dose day 1, fasted; for increase in AUC0-inf when co-administered with rivoceranib / increase in Cmax when co-administered with rivoceranib: rivoceranib 700 mg. The procedure:
as §1, §2, §3

For series [4], the target named is T2, CYP2C9. In words: Example 1 pharmacokinetic interaction study, rivoceranib 200 mg + Cooperstown 5+1 cocktail: warfarin probe.
In series [5] the target is T3, CYP2C19 (Homo sapiens, UniProt P33261). The settings on record: in vivo, po.
In series [6] the target is T3, CYP2C19. In words: Example 2 phase 1 drug-drug interaction study, rivoceranib 700 mg QD + 5+1 cocktail: omeprazole probe. The procedure:
as §1, §2, §3

The conditions of series [7]: human, in vivo. The procedure:
as §3

Setting [8] is: po, Geometric LSM, 5 + 1 cocktail alone.
The mark [9] stands for this setting: po, Mean (CV %), 5 + 1 cocktail alone.
[10] abbreviates: rivoceranib 200 mg once daily, oral substrate.
Setting [11] is: oral, probe caffeine, Geometric LSM, Rivoceranib plus 5 + 1 cocktail, healthy volunteers, 5+1 cocktail day 11 + rivoceranib 700 mg QD days 6-15.
Where [12] appears, read: oral, probe caffeine, Mean (CV %), Rivoceranib plus 5 + 1 cocktail, healthy volunteers, 5+1 cocktail day 11 + rivoceranib 700 mg QD days 6-15.
The mark [13] stands for this setting: po, probe caffeine, Geometric LSM, 5 + 1 cocktail alone, healthy volunteers, single oral 5+1 cocktail dose day 1, fasted.
Where [14] appears, read: po, probe caffeine, Mean (CV %), 5 + 1 cocktail alone, healthy volunteers, single oral 5+1 cocktail dose day 1, fasted.
The mark [15] stands for this setting: rivoceranib 700 mg QD, 100*LSM Rivoceranib Plus 5+1 Cocktail/LSM 5+1 Cocktail Alone.

“Also recorded” adds a separate entry of the source.

What is called AUC(0-t) is exposure summed from dosing to a finite time, without extrapolation to infinity. As usually defined, the AUC(0-inf) is total exposure, with the tail of the curve extrapolated. What is called Cmax is the peak of the concentration-time curve.

T3 sequence (P33261 whole entry): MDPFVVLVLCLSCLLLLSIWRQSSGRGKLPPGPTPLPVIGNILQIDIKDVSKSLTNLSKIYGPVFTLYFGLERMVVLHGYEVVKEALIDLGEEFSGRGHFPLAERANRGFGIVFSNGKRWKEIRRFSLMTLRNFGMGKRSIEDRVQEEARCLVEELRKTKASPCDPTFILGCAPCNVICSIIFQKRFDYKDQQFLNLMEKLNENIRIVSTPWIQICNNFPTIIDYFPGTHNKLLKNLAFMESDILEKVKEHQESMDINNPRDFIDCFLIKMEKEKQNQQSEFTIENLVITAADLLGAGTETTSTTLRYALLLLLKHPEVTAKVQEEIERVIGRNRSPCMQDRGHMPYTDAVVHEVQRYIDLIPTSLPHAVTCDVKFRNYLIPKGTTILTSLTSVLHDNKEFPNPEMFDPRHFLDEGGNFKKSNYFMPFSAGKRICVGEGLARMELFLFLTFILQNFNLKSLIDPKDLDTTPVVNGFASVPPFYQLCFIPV
T2 sequence (P11712 whole entry): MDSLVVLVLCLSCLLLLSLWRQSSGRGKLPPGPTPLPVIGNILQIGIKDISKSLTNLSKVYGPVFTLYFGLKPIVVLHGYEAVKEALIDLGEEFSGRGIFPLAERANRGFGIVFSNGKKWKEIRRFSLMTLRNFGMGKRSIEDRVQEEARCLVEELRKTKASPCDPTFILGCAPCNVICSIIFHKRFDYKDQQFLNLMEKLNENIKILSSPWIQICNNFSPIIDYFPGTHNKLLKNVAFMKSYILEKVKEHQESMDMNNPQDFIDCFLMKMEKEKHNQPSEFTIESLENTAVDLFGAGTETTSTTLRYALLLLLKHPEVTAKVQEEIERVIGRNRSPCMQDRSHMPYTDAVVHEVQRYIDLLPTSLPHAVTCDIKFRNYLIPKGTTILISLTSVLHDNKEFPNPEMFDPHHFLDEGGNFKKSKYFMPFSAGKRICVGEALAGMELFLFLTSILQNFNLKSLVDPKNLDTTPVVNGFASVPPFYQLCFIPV

With `Cn1c(=O)[nH]c2ncn(C)c2c1=O` [paraxanthine], on CYP1A2 [1] (setting [8]), the AUC(0-t) turned out to be 31000 ng·h/mL, the AUC(0-inf) came out at 31700 ng·h/mL and the Cmax was determined as 1440 ng/mL. Besides, on CYP1A2 [1] (setting [9]), the AUC(0-t) is 31000 ng·h/mL, the AUC(0-inf) was found to be 28700 ng·h/mL and the Cmax was 1440 ng/mL. Besides, on CYP1A2 [2], the “AUC(0-t), Geometric LS Mean, Cooperstown Cocktail Alone” value (“AUC(0-t), Geometric LS Mean” below) is 10.0780; the “AUC(0-∞), Geometric LS Mean, Cooperstown Cocktail Alone” value (shortened to “AUC(0-∞), Geometric LS Mean”) came out at 10.1025; the “Cmax, Geometric LS Mean, Cooperstown Cocktail Alone” value (“Cmax, Geometric LS Mean” for short) is given as 7.1157.

For the compound `CC(=O)C[C@@H](c1ccccc1)c1c(O)c2ccccc2oc1=O` [S-warfarin], on CYP2C9 [3], the “AUC(0-t), Geometric LSM, Rivoceranib plus 5 + 1 cocktail” value is 28,490; the “AUC(0-t), Mean (CV %), Rivoceranib plus 5 + 1 cocktail” value is 28,920; the “AUC(0-∞), Geometric LSM, Rivoceranib plus 5 + 1 cocktail” value is on record as 34,670; the “AUC(0-∞), Mean (CV %), Rivoceranib plus 5 + 1 cocktail” value is 34,780. Moreover, at CYP2C9 [3], the “Cmax, Geometric LSM, Rivoceranib plus 5 + 1 cocktail” value came to 832.5 ng/mL; the “Cmax, Mean (CV %), Rivoceranib plus 5 + 1 cocktail” value amounted to 840.2 ng/mL; the “AUC(0-t), Geometric LSM, 5 + 1 cocktail alone” value was 18.880; the “AUC(0-t), Mean (CV %), 5 + 1 cocktail alone” value is recorded as 18,880. Besides, at CYP2C9 [3], the “AUC(0-∞), Geometric LSM, 5 + 1 cocktail alone” value is 20,640; the “AUC(0-∞), Mean (CV %), 5 + 1 cocktail alone” value was 20,640; the “Cmax, Geometric LSM, 5 + 1 cocktail alone” value is reported as 701.1 ng/mL; the “Cmax, Mean (CV %), 5 + 1 cocktail alone” value amounted to 701.1 ng/mL. Moreover, at CYP2C9 [3], the “increase in AUC0-inf when co-administered with rivoceranib” value was found to be 68% and the “increase in Cmax when co-administered with rivoceranib” value was 19%. Also, at CYP2C9 [4] (setting [10]), the “increase in AUC0-∞ with coadministration with rivoceranib” value was 28% and the “increase in Cmax with coadministration with rivoceranib” value was 5%.

Take `CC(=O)C[C@H](c1ccccc1)c1c(O)c2ccccc2oc1=O` [R-warfarin]: on CYP2C9 [3], the “AUC(0-t), Geometric LSM, Rivoceranib plus 5 + 1 cocktail” value is reported as 36,090; the “AUC(0-t), Mean (CV %), Rivoceranib plus 5 + 1 cocktail” value is 36,660; the “AUC(0-∞), Geometric LSM, Rivoceranib plus 5 + 1 cocktail” value is 48,560; the “AUC(0-∞), Mean (CV %), Rivoceranib plus 5 + 1 cocktail” value is 49,220. At CYP2C9 [3], the “Cmax, Geometric LSM, Rivoceranib plus 5 + 1 cocktail” value is 804.9 ng/mL; the “Cmax, Mean (CV %), Rivoceranib plus 5 + 1 cocktail” value is 816.0 ng/mL; the “AUC(0-t), Geometric LSM, 5 + 1 cocktail alone” value is recorded as 29,860; the “AUC(0-t), Mean (CV %), 5 + 1 cocktail alone” value is given as 29,860. Also, at CYP2C9 [3], the “AUC(0-∞), Geometric LSM, 5 + 1 cocktail alone” value was 36,750; the “AUC(0-∞), Mean (CV %), 5 + 1 cocktail alone” value is listed as 36,750; the “Cmax, Geometric LSM, 5 + 1 cocktail alone” value was 701.2 ng/mL; the “Cmax, Mean (CV %), 5 + 1 cocktail alone” value worked out at 701.2 ng/mL. On CYP2C9 [3], the “increase in AUC0-inf when co-administered with rivoceranib” value was found to be 32% and the “increase in Cmax when co-administered with rivoceranib” value is listed as 15%. Besides, at CYP2C9 [4] (rivoceranib 200 mg daily, plasma, FIG. 4 and Table 5), the “levels on coadministration with rivoceranib” value was “relatively unaffected”.

Take `Cn1c(=O)c2c(ncn2C)n(C)c1=O` [caffeine]: on CYP1A2 [1] (setting [11]), the AUC(0-t) was determined as 43200 ng·h/mL, the AUC(0-inf) turned out to be 45400 ng·h/mL and the Cmax came to 5210 ng/mL. On CYP1A2 [1] (setting [12]), the AUC(0-t) was determined as 44500 ng·h/mL, the AUC(0-inf) came out at 47600 ng·h/mL and the Cmax was determined as 5330 ng/mL. For the same compound, the AUC(0-t) on CYP1A2 [1] (po, 200 mg, probe caffeine, Geometric LSM, 5 + 1 cocktail alone, healthy volunteers, single oral 5+1 cocktail dose day 1, fasted) worked out at 52600 ng·h/mL. In addition, the AUC(0-t) on CYP1A2 [1] (po, 200 mg, probe caffeine, Mean (CV %), 5 + 1 cocktail alone, healthy volunteers, single oral 5+1 cocktail dose day 1, fasted) came out at 52600 ng·h/mL. Also, on CYP1A2 [1] (setting [13]), the AUC(0-inf) is 53400 ng·h/mL and the Cmax came out at 5190 ng/mL. For the same compound, at CYP1A2 [1] (setting [14]), the AUC(0-inf) came to 53400 ng·h/mL and the Cmax turned out to be 5190 ng/mL. Besides, on CYP1A2 [1] (rivoceranib 700 mg QD), the “change of Cmax with rivoceranib” value was “relatively unchanged; also recorded: did not change” and the “reduction of AUC0-inf by rivoceranib” value turned out to be 15%. On CYP1A2 [1] (setting [15]), the “AUC(0-∞), Geometrical mean Ratio, % (90% CI)” value is 84.87% and the “Cmax, Geometrical mean Ratio, % (90% CI)” value is 100.41%. At CYP1A2 [2], the “AUC(0-t), Geometric LS Mean” value came to 10.6274; the “AUC(0-∞), Geometric LS Mean” value was found to be 10.6463; the “Cmax, Geometric LS Mean” value was found to be 8.4984.

With `COc1ccc2[nH]c([S+]([O-])Cc3ncc(C)c(OC)c3C)nc2c1` (stereo not drawn) [omeprazole], on CYP2C19 [5], the “AUC(0-t), Geometric LS Mean” value came to 7.3711; the “AUC(0-∞), Geometric LS Mean” value is 7.5365; the “Cmax, Geometric LS Mean” value is 6.3720. Besides, at CYP2C19 [6] (rivoceranib 700 mg), the “increase in AUC0-inf with rivoceranib” value was determined as 3.3 fold and the “increase in Cmax with rivoceranib” value came to 2 fold. Besides, on CYP2C19 [6] (setting [15]), the “AUC(0-t), Geometrical mean Ratio, % (90% CI)” value was determined as 259.87%; the “AUC(0-∞), Geometrical mean Ratio, % (90% CI)” value was determined as 272.50%; the “Cmax, Geometrical mean Ratio, % (90% CI)” value turned out to be 198.80%.

Regarding `N#CC1(c2ccc(NC(=O)c3cccnc3NCc3ccncc3)cc2)CCCC1` [rivoceranib, N-[4-(1-cyanocyclopentyl)phenyl]-2-{[(pyridin-4-yl)methyl]amino}pyridine-3-carboxamide], in series [7], the “volunteers who had a TEAE (number)” value was 16 and the “volunteers who had a TEAE (percent)” value amounted to 53.30%.
